Laboratory results as given in ChEMBL document CHEMBL5036350, “Binding site comparison for coumarin inhibitors and amine/amino acid activators of human carbonic anhydrases” (Eur J Med Chem, 2021).
Blank lines part the entries; values can stand above or below the compound they belong to.

Assays:
Conditions in all cases: filed as activator
[1] = biological target: Carbonic anhydrase 13 (Homo sapiens) (UniProt Q8N1Q1); test: Activation of human carbonic anhydrase 13 by stopped flow assay
[2] = biological target: Carbonic anhydrase 4 (Homo sapiens) (UniProt P22748); test: Activation of human carbonic anhydrase 4 by stopped flow assay
[3] = biological target: Carbonic anhydrase 5A, mitochondrial (Homo sapiens) (UniProt P35218); test: Activation of human carbonic anhydrase 5A by stopped flow assay
[4] = biological target: Carbonic anhydrase 7 (Homo sapiens) (UniProt P43166); test: Activation of human carbonic anhydrase 7 by stopped flow assay
[5] = biological target: Carbonic anhydrase 14 (Homo sapiens) (UniProt Q9ULX7); test: Activation of human carbonic anhydrase 14 by stopped flow CO2 hydrase assay
[6] = biological target: Carbonic anhydrase 2 (Homo sapiens) (UniProt P00918); test: Activation of human carbonic anhydrase 2 by stopped flow assay

Sequence of Carbonic anhydrase 13 (Homo sapiens) (Q8N1Q1 whole entry, looked up): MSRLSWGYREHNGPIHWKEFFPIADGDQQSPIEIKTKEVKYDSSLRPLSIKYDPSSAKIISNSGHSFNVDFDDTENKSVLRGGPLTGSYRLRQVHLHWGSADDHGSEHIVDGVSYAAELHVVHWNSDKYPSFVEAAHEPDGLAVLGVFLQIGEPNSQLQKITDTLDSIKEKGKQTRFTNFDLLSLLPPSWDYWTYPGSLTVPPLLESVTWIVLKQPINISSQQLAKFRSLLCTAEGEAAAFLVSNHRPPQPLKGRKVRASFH
Sequence of Carbonic anhydrase 7 (Homo sapiens) (P43166 whole entry): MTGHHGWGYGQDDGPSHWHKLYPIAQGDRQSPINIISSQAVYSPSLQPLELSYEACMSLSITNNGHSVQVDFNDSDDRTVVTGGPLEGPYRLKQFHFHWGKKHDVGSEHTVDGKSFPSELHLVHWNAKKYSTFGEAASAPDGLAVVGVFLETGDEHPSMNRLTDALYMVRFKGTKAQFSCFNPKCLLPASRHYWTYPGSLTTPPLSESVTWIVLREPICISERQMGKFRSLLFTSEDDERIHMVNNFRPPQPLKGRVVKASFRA
Sequence of Carbonic anhydrase 14 (Homo sapiens) (Q9ULX7 whole entry): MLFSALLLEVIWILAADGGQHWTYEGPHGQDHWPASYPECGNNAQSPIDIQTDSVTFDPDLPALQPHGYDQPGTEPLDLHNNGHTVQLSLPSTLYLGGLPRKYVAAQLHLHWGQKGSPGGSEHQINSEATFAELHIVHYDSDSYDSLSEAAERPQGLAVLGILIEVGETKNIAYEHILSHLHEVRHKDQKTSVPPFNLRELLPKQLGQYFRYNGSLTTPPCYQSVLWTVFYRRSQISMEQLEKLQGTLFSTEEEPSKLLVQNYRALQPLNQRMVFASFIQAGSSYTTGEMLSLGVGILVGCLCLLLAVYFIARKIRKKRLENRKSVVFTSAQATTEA
Sequence of Carbonic anhydrase 4 (Homo sapiens) (P22748 whole entry): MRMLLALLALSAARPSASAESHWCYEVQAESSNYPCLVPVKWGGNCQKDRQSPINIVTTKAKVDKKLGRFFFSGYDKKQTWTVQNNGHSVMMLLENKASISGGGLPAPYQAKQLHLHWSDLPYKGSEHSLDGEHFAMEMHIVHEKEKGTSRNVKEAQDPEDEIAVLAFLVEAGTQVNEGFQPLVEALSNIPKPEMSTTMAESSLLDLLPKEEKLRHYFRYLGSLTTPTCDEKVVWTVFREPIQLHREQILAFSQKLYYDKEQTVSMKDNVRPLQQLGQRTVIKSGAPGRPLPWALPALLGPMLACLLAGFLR
Sequence of Carbonic anhydrase 5A, mitochondrial (Homo sapiens) (P35218 whole entry): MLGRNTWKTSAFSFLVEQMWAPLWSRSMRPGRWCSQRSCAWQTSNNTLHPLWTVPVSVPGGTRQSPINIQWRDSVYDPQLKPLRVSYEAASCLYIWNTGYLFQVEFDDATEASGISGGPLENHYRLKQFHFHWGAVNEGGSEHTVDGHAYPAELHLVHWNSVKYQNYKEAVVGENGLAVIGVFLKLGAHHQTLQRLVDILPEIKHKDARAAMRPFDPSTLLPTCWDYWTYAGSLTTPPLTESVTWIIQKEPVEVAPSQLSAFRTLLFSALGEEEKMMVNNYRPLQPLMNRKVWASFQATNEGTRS

Compound: N[C@@H](Cc1c[nH]cn1)C(=O)O
KA [1]: 0.13 µM

Compound: CNC[C@H](O)c1ccc(O)c(O)c1
KA [2]: 45 µM
KA [3]: 63 µM
KA [4]: 60 µM
KA [5]: 36 µM

Compound: N[C@H](Cc1c[nH]cn1)C(=O)O
KA [1]: 0.09 µM

More lines, now with the values ahead:

KA [1]: 0.81 µM
Compound: N[C@H](Cc1c[nH]c2ccccc12)C(=O)O

KA [6]: 12.5 µM
KA [1]: 4.6 µM
Compound: NCCc1c[nH]cn1
